The structures appear in SMILES notation. Where a SMILES comes first, the peptide text is derived from it.

The text below walks through data of patent US20170081368A1, “PEPTIDES AS OXYTOCIN AGONISTS” (Hoffmann-La Roche Inc., priority 2014, published 2017).

Assay [1] deals with T1, human Oxytocin (OTR) receptor (Homo sapiens, UniProt P30559).
T1 construct: expressed in transfected cells
T1 sequence (P30559 1-389): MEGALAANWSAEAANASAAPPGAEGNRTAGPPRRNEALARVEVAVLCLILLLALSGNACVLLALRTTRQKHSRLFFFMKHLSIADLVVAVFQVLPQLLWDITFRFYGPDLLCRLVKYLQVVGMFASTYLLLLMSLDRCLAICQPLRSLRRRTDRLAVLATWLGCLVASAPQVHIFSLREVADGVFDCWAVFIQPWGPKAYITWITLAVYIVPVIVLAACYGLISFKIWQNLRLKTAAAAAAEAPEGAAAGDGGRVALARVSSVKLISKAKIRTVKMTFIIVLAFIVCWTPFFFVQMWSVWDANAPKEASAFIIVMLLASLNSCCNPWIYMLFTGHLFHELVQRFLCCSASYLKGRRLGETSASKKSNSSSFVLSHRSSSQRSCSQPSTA
The assay can be described thus: Calcium flux assay (FLIPR) in CHO cells expressing human OTR. The following applies: for Emax: CHO, read-out: hOT efficacy; for Emax / hOT efficacy: maximum response normalized to endogenous full agonist = 100%; for EC50: agonist mode, CHO cells, calcium flux FLIPR, read-out: hOT EC50. The class given is cell-based. The source says:
(§1) Chines Hamster Ovary (CHO) cells were transfected with expression plasmids encoding either the human Vla, the human Oxytocin (OTR) or the humanV2 receptor, the later in combination with the chimeric Gqs5 G protein to redirect the signal to Calcium flux. Stable cells were cloned by limiting dilution to yield monoclonal cell lines expressing either human Vla, human V2+Gqs5 or human OTR receptors and selected based on functional responses detected on a fluorometric imaging plate reader (FLIPR) detecting Calcium flux in the cell after receptor activation. The stable cell lines were grown in F-12 K Nutrient Mixture (Kaighns Modification), containing 10% foetal bovine serum (FBS), 1% penicillin-streptomycin, 1% L-glutamate, 200 ug/ml Geneticin at 37° C. in a 10% CO2 incubator at 95% humidity.
(§2) Calcium Flux Assays Using Fluorescent Imaging (Fluorometric Imaging Plate Reader, FLIPR)
(§3) On the afternoon before the assay, cells were plated at a density of 50,000 cells/well into black 96 well plates with clear bottoms to allow cell inspection and fluorescence measurements from the bottom of each well. The density of cells was sufficient to yield a confluent monolayer the next day. Hanks balanced salt solution, without phenol red, containing 20 mM HEPES (pH 7.3) and 2.5 mM probenecid (assay buffer) was prepared fresh for each experiment. Compound dilutions were made using a Beckman Biomek 2000 laboratory automation workstation, in assay buffer containing 1% DMSO. The dye-loading buffer consisted of a final concentration of 2 μM Fluo-4-AM (dissolved in DMSO and pluronic acid) in assay buffer. The existing culture media was removed from the wells and 100 μl of the dye-loading buffer was added to each well and incubated for approximately 60 min at 37° C. in a 5% CO2 incubator at 95% humidity. Once dye-loaded, the cells were washed thoroughly on an Embla cell washer with the assay buffer to remove any unincorporated dye. Exactly 100 μl assay buffer was left in each well.
(§4) Each 96 well plate containing dye-loaded cells was placed into the FLIPR machine and the laser intensity set to a suitable level to detect low basal fluorescence. To test compounds as agonists, 25 μl diluted compound was added to the plate 10 seconds into the fluorescent measurements and fluorescent response was recorded for 5 minutes. The fluorescence data was normalized to the endogenous full agonist dose-response set at 100% for the maximum response and 0% for the minimum. Each agonist concentration-response curve was constructed using a four parameter logistic equation with Microsoft Excel XLFit as follows: Y=Minimum+((Maximum−Minimum)/(1+10^(LogEC50−X)nH)), where y is the % normalized fluorescence, minimum is the minimum y, maximum is the maximum y, log EC50 is the log10 concentration which produces 50% of the maximum induced fluorescence, x is the log10 of the concentration of the agonist compound and H is the slope of the curve (the Hill Coefficient). The maximum value gives the efficacy of the agonist test compound in percentage. The concentration of agonist that produced a half-maximal response is represented by the EC50 value, the logarithm of which yielded the pEC50 value.
(Calcium assays in cells follow changes in intracellular calcium, usually with a dye or a luminescent sensor.)

The target in the next assay is T2, human V2 receptor (Homo sapiens, UniProt P30518).
T2 construct: expressed in transfected cells
T2 sequence (P30518 whole entry): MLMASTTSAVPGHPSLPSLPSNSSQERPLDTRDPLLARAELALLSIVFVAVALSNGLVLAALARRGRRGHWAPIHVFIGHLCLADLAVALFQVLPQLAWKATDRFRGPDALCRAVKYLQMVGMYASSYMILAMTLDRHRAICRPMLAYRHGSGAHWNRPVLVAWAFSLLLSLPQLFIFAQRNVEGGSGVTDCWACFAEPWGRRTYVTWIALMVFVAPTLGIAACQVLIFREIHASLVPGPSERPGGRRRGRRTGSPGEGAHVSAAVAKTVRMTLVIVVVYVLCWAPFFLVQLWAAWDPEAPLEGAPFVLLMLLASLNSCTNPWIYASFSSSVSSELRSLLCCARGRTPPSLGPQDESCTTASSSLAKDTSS
The assay can be described thus: Calcium flux assay (FLIPR) in CHO cells expressing human V2+Gqs5. The class given is cell-based. The following applies: for Emax: CHO, maximum response normalized to endogenous full agonist = 100%, read-out: hV2 efficacy; for EC50: agonist mode, CHO cells with chimeric Gqs5, calcium flux FLIPR, read-out: hV2 EC50.
Source text: as §1, §2, §3, §4

For `CC[C@H](C)[C@@H]1NC(=O)[C@H](Cc2ccc(O)cc2)NC(=O)CCS(=O)(=O)CC[C@@H](C(=O)N(C)CC(=O)N[C@@H](Cc2ccccc2)C(=O)NCC(N)=O)NC(=O)[C@H](CC(N)=O)NC(=O)[C@H](CCC(N)=O)NC1=O` [Example 16] (HELM PEPTIDE1{Y.I.Q.N.[O=C([C@H](CCS(=O)(=O)CCC(=O)[*:3])N[*:1])[*:2]].[Sar].F.G.[am]}$PEPTIDE1,PEPTIDE1,1:R1-5:R3$$$V2.0), in assay [1], the Emax was determined as 104% and the EC50 came out at 5.6 nM.
For `CC[C@H](C)[C@@H]1NC(=O)[C@H](Cc2ccc(O)cc2)NC(=O)CCS(=O)(=O)CC[C@@H](C(=O)N(C)CC(=O)N[C@@H](Cc2ccc(O)cc2)C(=O)NCC(N)=O)NC(=O)[C@H](CC(N)=O)NC(=O)[C@H](CCC(N)=O)NC1=O` [Example 17] (HELM PEPTIDE1{Y.I.Q.N.[O=C([C@H](CCS(=O)(=O)CCC(=O)[*:3])N[*:1])[*:2]].[Sar].Y.G.[am]}$PEPTIDE1,PEPTIDE1,1:R1-5:R3$$$V2.0), in assay [1], the Emax is 105% and the EC50 was 2.2 nM.
On to `CC[C@H](C)[C@@H]1NC(=O)[C@H](Cc2ccc(O)cc2)NC(=O)CCS(=O)(=O)CC[C@@H](C(=O)N(C)CC(=O)N[C@@H](CO)C(=O)NCC(N)=O)NC(=O)[C@H](CC(N)=O)NC(=O)[C@H](CCC(N)=O)NC1=O` [Example 18] (HELM PEPTIDE1{Y.I.Q.N.[O=C([C@H](CCS(=O)(=O)CCC(=O)[*:3])N[*:1])[*:2]].[Sar].S.G.[am]}$PEPTIDE1,PEPTIDE1,1:R1-5:R3$$$V2.0; C-terminus assumed; bridges inferred), for which the Emax in assay [1] stood at 102%.
For `CC[C@H](C)[C@@H]1NC(=O)[C@H](Cc2ccc(O)cc2)NC(=O)CCS(=O)(=O)CC[C@@H](C(=O)N(C)CC(=O)N[C@@H](C)C(=O)NCC(N)=O)NC(=O)[C@H](CC(N)=O)NC(=O)[C@H](CCC(N)=O)NC1=O` [Example 19] (HELM PEPTIDE1{Y.I.Q.N.[O=C([C@H](CCS(=O)(=O)CCC(=O)[*:3])N[*:1])[*:2]].[Sar].A.G.[am]}$PEPTIDE1,PEPTIDE1,1:R1-5:R3$$$V2.0), in assay [1], the Emax was determined as 110% and the 50% effective concentration (EC50) is 1.4 nM.
Consider `CC[C@H](C)[C@@H]1NC(=O)[C@H](Cc2ccc(O)cc2)NC(=O)CCS(=O)(=O)CC[C@@H](C(=O)N(C)CC(=O)N[C@@H](CN)C(=O)NCC(N)=O)NC(=O)[C@H](CC(N)=O)NC(=O)[C@H](CCC(N)=O)NC1=O` [Example 20] (HELM PEPTIDE1{Y.I.Q.N.[O=C([C@H](CCS(=O)(=O)CCC(=O)[*:3])N[*:1])[*:2]].[Sar].[NC[C@H](N[*:1])C(=O)[*:2]].G.[am]}$PEPTIDE1,PEPTIDE1,1:R1-5:R3$$$V2.0), for which, in assay [1], the Emax came out at 113% and the half-maximal effective concentration (EC50) was 12.9 nM.
The like results for `CC[C@H](C)[C@@H]1NC(=O)[C@H](Cc2ccc(O)cc2)NC(=O)CCS(=O)(=O)CC[C@@H](C(=O)N(C)CC(=O)N[C@H](C(=O)NCC(N)=O)C2CCCCC2)NC(=O)[C@H](CC(N)=O)NC(=O)[C@H](CCC(N)=O)NC1=O` [Example 21] (HELM PEPTIDE1{Y.I.Q.N.[O=C([C@H](CCS(=O)(=O)CCC(=O)[*:3])N[*:1])[*:2]].[Sar].[O=C([C@@H](N[*:1])C1CCCCC1)[*:2]].G.[am]}$PEPTIDE1,PEPTIDE1,1:R1-5:R3$$$V2.0) were, in that order, 117% and 0.4 nM.
With `CC[C@H](C)[C@@H]1NC(=O)[C@H](Cc2ccc(O)cc2)NC(=O)CCS(=O)(=O)CC[C@@H](C(=O)N(C)CC(=O)N[C@@](C)(CC(C)C)C(=O)NCC(N)=O)NC(=O)[C@H](CC(N)=O)NC(=O)[C@H](CCC(N)=O)NC1=O` [Example 22] (HELM PEPTIDE1{Y.I.Q.N.[O=C([C@H](CCS(=O)(=O)CCC(=O)[*:3])N[*:1])[*:2]].[Sar].[CC(C)C[C@](C)(N[*:1])C(=O)[*:2]].G.[am]}$PEPTIDE1,PEPTIDE1,1:R1-5:R3$$$V2.0), in assay [1], the Emax was determined as 109% and the EC50 came to 2.5 nM.
Consider `CCC[C@H](NC(=O)[C@@H]1CCS(=O)(=O)CCC(=O)N[C@@H](Cc2ccc(O)cc2)C(=O)N[C@@H]([C@@H](C)CC)C(=O)N[C@@H](CCC(N)=O)C(=O)N[C@@H](CC(N)=O)C(=O)N1)C(=O)N[C@@H](CC(C)C)C(=O)NCC(N)=O` [Example 23] (HELM PEPTIDE1{Y.I.Q.N.[O=C([C@H](CCS(=O)(=O)CCC(=O)[*:3])N[*:1])[*:2]].[Nva].L.G.[am]}$PEPTIDE1,PEPTIDE1,1:R1-5:R3$$$V2.0), for which, in assay [1], the concentration giving a half-maximal response (EC50) amounted to 23 nM and the hOT efficacy was determined as 123%.
Regarding `CCCC[C@H](NC(=O)[C@@H]1CCS(=O)(=O)CCC(=O)N[C@@H](Cc2ccc(O)cc2)C(=O)N[C@@H]([C@@H](C)CC)C(=O)N[C@@H](CCC(N)=O)C(=O)N[C@@H](CC(N)=O)C(=O)N1)C(=O)N[C@@H](CC(C)C)C(=O)NCC(N)=O` [Example 24] (HELM PEPTIDE1{Y.I.Q.N.[O=C([C@H](CCS(=O)(=O)CCC(=O)[*:3])N[*:1])[*:2]].[Nle].L.G.[am]}$PEPTIDE1,PEPTIDE1,1:R1-5:R3$$$V2.0), in assay [1], the concentration for a half-maximal effect (EC50) was 40 nM and the hOT efficacy is reported as 114%.
Consider `CC[C@H](C)[C@@H]1NC(=O)[C@H](Cc2ccc(O)cc2)NC(=O)CCS(=O)(=O)CC[C@@H](C(=O)N[C@@H](CO)C(=O)N[C@@H](CC(C)C)C(=O)NCC(N)=O)NC(=O)[C@H](CC(N)=O)NC(=O)[C@H](CCC(N)=O)NC1=O` [Example 25] (HELM PEPTIDE1{Y.I.Q.N.[O=C([C@H](CCS(=O)(=O)CCC(=O)[*:3])N[*:1])[*:2]].S.L.G.[am]}$PEPTIDE1,PEPTIDE1,1:R1-5:R3$$$V2.0), for which, in assay [1], the EC50 was 16 nM and the hOT efficacy came out at 137%.
For `CC[C@H](C)[C@@H]1NC(=O)[C@H](Cc2ccc(O)cc2)NC(=O)CCS(=O)(=O)CC[C@@H](C(=O)N[C@@H](CCO)C(=O)N[C@@H](CC(C)C)C(=O)NCC(N)=O)NC(=O)[C@H](CC(N)=O)NC(=O)[C@H](CCC(N)=O)NC1=O` [Example 26] (HELM PEPTIDE1{Y.I.Q.N.[O=C([C@H](CCS(=O)(=O)CCC(=O)[*:3])N[*:1])[*:2]].[O=C([C@H](CCO)N[*:1])[*:2]].L.G.[am]}$PEPTIDE1,PEPTIDE1,1:R1-5:R3$$$V2.0), in assay [1], the Emax worked out at 140% and the EC50 came to 7 nM.
For `CC[C@H](C)[C@@H]1NC(=O)[C@H](Cc2ccc(O)cc2)NC(=O)CCS(=O)(=O)CC[C@@H](C(=O)N(CC(=O)N[C@H](C(=O)NCC(N)=O)C(C)C)C2CC2)NC(=O)[C@H](CC(N)=O)NC(=O)[C@H](CCC(N)=O)NC1=O` [Example 29] (HELM PEPTIDE1{Y.I.Q.N.[O=C([C@H](CCS(=O)(=O)CCC(=O)[*:3])N[*:1])[*:2]].[O=C(CN(C1CC1)[*:1])[*:2]].V.G.[am]}$PEPTIDE1,PEPTIDE1,1:R1-5:R3$$$V2.0), the Emax on human V2 receptor is 143%; in assay [1] it was 105%. Besides, the figures for the EC50 (at human V2 receptor; in assay [1]) were 3340 nM and 0.5 nM, respectively.
Consider `CC[C@H](C)[C@@H]1NC(=O)[C@H](Cc2ccc(O)cc2)NC(=O)CCS(=O)(=O)CC[C@@H](C(=O)N(CC(=O)NC(C)(C)C(=O)NCC(N)=O)C2CC2)NC(=O)[C@H](CC(N)=O)NC(=O)[C@H](CCC(N)=O)NC1=O` [Example 30] (HELM PEPTIDE1{Y.I.Q.N.[O=C([C@H](CCS(=O)(=O)CCC(=O)[*:3])N[*:1])[*:2]].[O=C(CN(C1CC1)[*:1])[*:2]].[Aib].G.[am]}$PEPTIDE1,PEPTIDE1,1:R1-5:R3$$$V2.0), for which, on human V2 receptor, the Emax was determined as 131% and the EC50 was 6340 nM. For the same molecule, in assay [1], the EC50 turned out to be 1 nM and the hOT efficacy worked out at 97%.

What is called EC50 is the midpoint of the concentration-response curve.
